# Results: patent US7649022B2, “Bioabsorbable elastomeric polymer networks, cross-linkers and methods of use” (priority 2007, dated 2010)
# Assay: Properties and self-adherence of films of PEA 4-Phe-4 mixed with EAC-2 cross-linkers, dry and after 24 h in water
# Assay type: physicochemical
# Design: key to Self-adherence: (—) means: no self-adherence observed
# Conditions: for Self-adherence: folded film in water 24 hours; for Dry: dry film; for Wet: pre-soaked in water at room temperature 24 hours
# Text: At the first stage, this Example addresses the question of whether invention cross-linking agents can be used as plasticizers without causing the composition to undesirably adhere to the surface of other materials (for example, steel, and other medical device surfaces).
structure (smiles),measurement,setting,value
"C=C(C)C(=O)N[C@@H](Cc1ccccc1)C(=O)OCCCCCCOC(=O)[C@H](Cc1ccccc1)NC(=O)C(=C)C [Phe-6-MA, dimethacrylate of bis(L-Phe)-1,6-hexanediol diester]",Self-adherence,PEA 4-Phe-4/EAC-2 40/60 w/w,—
same,Dry,PEA 4-Phe-4/EAC-2 60/40 w/w,Hard
same,Self-adherence,PEA 4-Phe-4/EAC-2 60/40 w/w,—
same,Wet,PEA 4-Phe-4/EAC-2 60/40 w/w,Elastic
same,Dry,PEA 4-Phe-4/EAC-2 80/20 w/w,Hard
same,Self-adherence,PEA 4-Phe-4/EAC-2 80/20 w/w,—
C=C(C)C(=O)NC(CC(C)C)C(=O)OCCCCCCOC(=O)C(CC(C)C)NC(=O)C(=C)C (stereo not shown) [Leu-6-MA],Self-adherence,PEA 4-Phe-4/EAC-2 40/60 w/w,—
same,Self-adherence,PEA 4-Phe-4/EAC-2 60/40 w/w,—
same,Self-adherence,PEA 4-Phe-4/EAC-2 80/20 w/w,—
O=C(C=Cc1ccccc1)NC(Cc1ccccc1)C(=O)OCCCCCCOC(=O)C(Cc1ccccc1)NC(=O)C=Cc1ccccc1 (stereo not shown) [Phe-6-CA],Dry,PEA 4-Phe-4/EAC-2 40/60 w/w,Brittle
same,Self-adherence,PEA 4-Phe-4/EAC-2 40/60 w/w,—
same,Dry,PEA 4-Phe-4/EAC-2 60/40 w/w,Brittle
same,Self-adherence,PEA 4-Phe-4/EAC-2 60/40 w/w,—
same,Wet,PEA 4-Phe-4/EAC-2 60/40 w/w,Elastic
same,Dry,PEA 4-Phe-4/EAC-2 80/20 w/w,Hard
same,Self-adherence,PEA 4-Phe-4/EAC-2 80/20 w/w,—
C=CC(=O)NC(CC(C)C)C(=O)OCCCCCCOC(=O)C(CC(C)C)NC(=O)C=C (stereo not shown) [Leu-6-AA],Self-adherence,PEA 4-Phe-4/EAC-2 40/60 w/w,—
same,Self-adherence,PEA 4-Phe-4/EAC-2 60/40 w/w,—
same,Wet,PEA 4-Phe-4/EAC-2 60/40 w/w,Brittle
same,Dry,PEA 4-Phe-4/EAC-2 80/20 w/w,Hard
same,Self-adherence,PEA 4-Phe-4/EAC-2 80/20 w/w,—
CC(C)CC(NC(=O)C=Cc1ccccc1)C(=O)OCCCCCCOC(=O)C(CC(C)C)NC(=O)C=Cc1ccccc1 (stereo not shown) [Leu-6-CA],Self-adherence,PEA 4-Phe-4/EAC-2 40/60 w/w,—
same,Dry,PEA 4-Phe-4/EAC-2 60/40 w/w,Elastic
same,Self-adherence,PEA 4-Phe-4/EAC-2 60/40 w/w,—
same,Self-adherence,PEA 4-Phe-4/EAC-2 80/20 w/w,—
